Relative viability data for one cell line are collected here from the supplement of paper PMC10307832.

Holding throughout (experiment): relative viability (nuclei count vs DMSO), 5 days (fraction); higher = more cells survive
Compound in the assay “Adavosertib + Trametinib”: C=CCn1c(=O)c2cnc(Nc3ccc(N4CCN(C)CC4)cc3)nc2n1-c1cccc(C(C)(C)O)n1 [Adavosertib] + CC(=O)Nc1cccc(-n2c(=O)n(C3CC3)c(=O)c3c(Nc4ccc(I)cc4F)n(C)c(=O)c(C)c32)c1 [Trametinib] (partner 0.02 µM)
The procedure, abridged: (§1)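 Relative viability is defined as nuclei in treated wells over nuclei in vehicle wells. Duplicate plates were run and medians reported. Lung cancer cell lines in 1536-well plates were dosed by pin tool one day after seeding, with one drug or with a fixed anchor-drug dose plus five library-drug doses (not always all listed) in √10 steps, and nuclei were counted after 5 days.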

Compound in the assay “Adavosertib + Linsitinib”: C=CCn1c(=O)c2cnc(Nc3ccc(N4CCN(C)CC4)cc3)nc2n1-c1cccc(C(C)(C)O)n1 [Adavosertib] + C[C@]1(O)C[C@@H](c2nc(-c3ccc4ccc(-c5ccccc5)nc4c3)c3c(N)nccn32)C1 [Linsitinib] (partner 1 µM)
An outline of the steps: as §1

Compound in the assay “Nelarabine + Dasatinib”: COc1nc(N)nc2c1ncn2[C@@H]1O[C@H](CO)[C@@H](O)[C@@H]1O [Nelarabine] + Cc1nc(Nc2ncc(C(=O)Nc3c(C)cccc3Cl)s2)cc(N2CCN(CCO)CC2)n1 [Dasatinib] (partner 0.075 µM)
An outline of the steps:
as §1

Compound in the assay “Nelarabine + Olaparib”: COc1nc(N)nc2c1ncn2[C@@H]1O[C@H](CO)[C@@H](O)[C@@H]1O [Nelarabine] + O=C(c1cc(Cc2n[nH]c(=O)c3ccccc23)ccc1F)N1CCN(C(=O)C2CC2)CC1 [Olaparib] (partner 8 µM)
An outline of the steps: as §1

Consider EMC-BAC-2, for which the relative viability with Adavosertib + Trametinib (first compound 0.03162 µM) was 0.938; with Adavosertib + Trametinib (first compound 0.1 µM), 0.894; in the assay with Adavosertib + Trametinib (first compound 0.3162 µM), 0.927; with Adavosertib + Linsitinib (first compound 0.01 µM), 0.823; with Adavosertib + Linsitinib (first compound 0.03162 µM), 0.798; with Adavosertib + Linsitinib (first compound 0.1 µM), 0.862. Moreover, the relative viability with Adavosertib + Linsitinib (first compound 0.3162 µM) was determined as 0.751; in the assay with Nelarabine + Dasatinib (first compound 0.01 µM) it was 0.409; with Nelarabine + Dasatinib (first compound 0.03162 µM) it was 0.348; with Nelarabine + Dasatinib (first compound 0.1 µM), 0.304; with Nelarabine + Dasatinib (first compound 0.3162 µM) it was 0.374; with Nelarabine + Dasatinib (first compound 1 µM), 0.356. The relative viability with Nelarabine + Olaparib (first compound 0.01 µM) came out at 0.538; with Nelarabine + Olaparib (first compound 0.03162 µM) it was 0.432; with Nelarabine + Olaparib (first compound 0.1 µM) it was 0.486; in the assay with Nelarabine + Olaparib (first compound 0.3162 µM), 0.529; with Nelarabine + Olaparib (first compound 1 µM) it was 0.553.
